{"source": "patent US20250248957A1", "about": "“CELL DIFFERENTIATION” (JOHN HEMMING TRADING LTD, priority 2022, published 2025)", "type_in_all_cases": "in vivo, human", "key": {"[1]": {"assay": "Blood glucose over 24 hour periods by continuous glucose monitor (CGM)", "conditions": "2-40 g citrate daily, 10 months; two non-consecutive days; FIGS. 5(d),(e)", "protocol": "(§1) Citrate was administered to the subject with a total daily citrate dose of between 2 and 40 g for a period of 10 months. Blood glucose levels were measured over separate 24 hour periods using a continuous glucose monitor (CGM) purchased from Dexcom."}, "[2]": {"tested_on": "C reactive protein (CRP)", "assay": "CRP level in the blood of the subject", "protocol": "(§2) Citrate was administered to the subject in the morning as magnesium and potassium citrate, at lunch time as 10 ml of lemon juice and as calcium and sodium citrate with a total daily citrate dose of 3.95 g. The antioxidant melatonin was administered at night to provide a total nightly dose of between 10 mg and 470 mg.\nCRP levels were reduced from 0.5 mg/L to <0.3 mg/L (0.3 mg/L represents the lower limit of detection) following two months of citrate administration. A subsequent measurement of CRP using equipment with higher sensitivity identified a CRP level of below 0.16 mg/L. The Inventor believes that reduced CRP levels result from increased differentiation of senescent stem cells and reduced production of senescent cells via cell dedifferentiation."}, "[3]": {"assay": "Kidney function markers (Cystatin C, creatinine)", "text": "The subject's creatinine levels reached as low as […]."}, "[4]": {"tested_on": "precancerous spot", "assay": "Appearance of a precancerous spot on the skin", "conditions": "about 3 g citrate daily for about 3 months; FIG. 7"}, "[5]": {"assay": "Facial skin quality (number of blemishes)", "conditions": "2-40 g citrate daily for 6 weeks; before: 25; FIG. 6", "text": "Administration of citrate was also found to improve facial skin quality following administration of between 2 and 40 g of citrate daily for a period of 6 weeks."}, "[6]": {"tested_on": "hair follicle stem cells", "assay": "Hair growth on the scalp of a subject after citrate administration", "protocol": "as §2, with “Citrate was administered to a subject in the morning as magnesium and potassium citrate and at lunch time as 10 ml of lemon juice to provide a total daily citrate dose of 1.85 g. The antioxidant melatonin was administered at night to provide a total nightly dose of between 10 mg and 470 mg. Citrate was administered daily for four weeks. Citrate” for “Citrate”"}, "[7]": {"tested_on": "muscle stem cells (satellite cells)", "assay": "Muscle mass of the subject after citrate administration", "conditions": "total daily citrate dose 3.95 g", "protocol": "as §2"}, "[8]": {"assay": "Concentration of key biomarkers in the blood (HbA1c, folate, glucose)", "protocol": "as §1\nThe Inventor also measured haemoglobin A1C (HbA1c) which can be used as a diagnostic marker for diabetes. An HbA1c concentration of >6.4% is indicative of diabetes, and a concentration of 5.7% to 6.4% is indicative of prediabetes."}}, "data": [{"smiles": "O=C(O)CC(O)(CC(=O)O)C(=O)O", "note": "[citrate]", "values": [{"measurement": "blood glucose peaks over 24 hour period (CGM)", "setting": "[1]", "value": "no significant glucose peaks occurred"}, {"measurement": "CRP level in blood", "setting": "[2]; after two months of citrate, baseline 0.5 mg/L, lower limit of detection 0.3 mg/L", "value": "< 0.3", "unit": "mg/L"}, {"measurement": "CRP level, subsequent measurement with higher sensitivity equipment", "setting": "[2]; subsequent measurement", "value": "below 0.16 mg/L"}, {"measurement": "creatinine level, lowest reached", "setting": "[3]; 2-40 g citrate daily, 10 months", "value": 62, "unit": "mmol/L"}, {"measurement": "Cystatin C level", "setting": "[3]; following 3 months of citrate, 2-40 g daily, baseline 0.98 mg/L", "value": 0.89, "unit": "mg/L"}, {"measurement": "appearance of a precancerous spot on the skin", "setting": "[4]", "value": "reduce the appearance of a precancerous spot"}, {"measurement": "number of facial blemishes", "setting": "[5]", "value": 20}, {"measurement": "hair growth with added red or infrared radiation", "setting": "[6]; topical red or infrared radiation 600-900 nm in addition to citrate", "value": "further improved hair growth"}, {"measurement": "growth of new hairs in areas of the scalp which had suffered hair loss", "setting": "[6]; total daily citrate dose 1.85 g for four weeks, melatonin at night, FIG. 1", "value": "growth of new hairs was observed"}, {"measurement": "growth of thicker and darker hairs", "setting": "[6]; total daily citrate dose 3.95 g, melatonin at night, compared to Example 1, FIGS. 2-4", "value": "growth of hairs which were thicker and darker"}, {"measurement": "muscle mass", "setting": "[7]", "value": "An increase in muscle mass"}, {"measurement": "HbA1c level maintained", "setting": "[8]; 2-40 g citrate daily", "value": "less than 5.7%"}, {"measurement": "HbA1c level, lowest reached", "setting": "[8]; 2-40 g citrate daily", "value": 4.18, "unit": "%"}, {"measurement": "Glucose concentration in the blood", "setting": "[8]; following 6 months of citrate administration, reference range 3.3-5.6", "value": 4.53, "unit": "mmol/L"}, {"measurement": "HbA1C in the blood", "setting": "[8]; following 6 months of citrate administration, reference range 4-6", "value": 4.18, "unit": "%"}]}]}
